These results are taken from patent US20230158057A1, “COMPOSITIONS AND METHODS FOR THE TREATMENT OF PAIN” (Duke University, priority 2020, published 2023).

One experiment relates to DRG nociceptors. The experiment is described as follows: Whole-mount DRG patch clamp from tumor-bearing mice ex vivo. It counts as cell-based, mouse. The conditions noted are these: 30 μM, 2 h, DRGs isolated d11. The text has this:
Whole-cell patch clamp recordings in whole-mount DRGs ex vivo. Four-week-old male C57BL/6 mice were used to establish the bone cancer pain model by intrafemoral inoculation of LLC, leading to nociceptor hyperexcitability in the ipsilateral L3-L5 DRGs which extend afferent nerve fibers to the tumor-bearing femur. […] 11d after tumor implantation, mice were euthanized followed by careful isolation of L3-L5 DRGs, which were placed in oxygenated artificial cerebrospinal fluid. DRGs were lightly digested for 20 minutes using an enzymatic mixture consisting of 0.32 ml collagenase A (1 mg/mL) and Trypsin (0.25%). Intact DRGs were then incubated in ACSF oxygenated with 95% O2 and 5% CO2, supplemented with vehicle (PBS) or 30 μM DMXAA in PBS for 2 hours at 37° C. Following incubation, DRGs were transferred to a recording chamber, where neurons could be visualized using a 40× water-immersion objective on an Olympus BX51WI microscope. Patch pipettes were pulled from borosilicate capillaries (Chase Scientific Glass Inc.) and filled with a pipette solution containing (in mM): 126 potassium gluconate, 10 NaCl, 1 MgCl2, 10 EGTA, 2 Na-ATP, and 0.1 Mg-GTP, adjusted to pH 7.3 with KOH. The external solution was composed of (in mM): 140 NaCl, 5 KCl, 2 CaCl2, 1 MgCl2, 10 HEPES, 10 glucose, adjusted to pH 7.4 with NaOH. […] Data were recorded and analyzed using the pClamp10 (Axon Instruments) software.

The subject of experiment [1] is LLC / LL/2-Luc2 / E0771 bone tumors. The experiment is described as follows: Local tumor burden (bioluminescence imaging, thigh circumference ratio). It counts as in vivo, mouse. The protocol:
Culture of LLC cells and measurement of local tumor burden: Murine LLC cells were cultured in high glucose (4.5 g/L) Dulbecco's Modified Eagle Medium (DMEM; ThermoFisher) supplemented with 10% fetal bovine serum (Gibco, ThermoFisher) and 1% Antibiotic-Antimycotic solution containing penicillin, streptomycin, and Amphotericin B (ThermoFisher, 15240062). Cells were cultured in the presence of 5% CO2 at 37° C. Cells were passaged using a 0.05% trypsin digest once they achieved 70% confluency. Prior to in vivo injection, cells were harvested with 0.05% trypsin digestion followed by several washes in PBS. Cell counts were performed using a hemocytometer and diluted to achieve a suspension of 1×10^8 ml-1 cells in PBS. To determine whether i.t. STING agonists altered local tumor burden induced by femoral inoculation with LLC cells, mice were lightly anesthetized with isoflurane at the conclusion of the experiment, followed by measurement of the total circumference of the widest aspect of the thigh, which accurately reflects tumor burden. Ratios were computed between the ipsilateral (LLC-inoculated) and contralateral (tumor-free) legs.
In vivo bioluminescence imaging. RediJect D-Luciferin Ultra was purchased from PerkinElmer (770505). Prior to in vivo imaging, mice were shaved in the region of interest depicted in the figure. Bioluminescence images of LL/2-Luc2 bearing mice were captured with IVIS Lumina III system 15 min after intraperitoneal injection of D-Luciferin (30 mg/kg). The IVIS acquisition control panel was set to following conditions for imaging: Exposure time=auto, Binning=medium, F/Stop=1, Emission Filter=open. The bioluminescence images were analyzed using Living Image software from PerkinElmer.
STING agonists suppress local bone cancer tumor burden and further metastasis. Intratumoral injection of STING agonists has been reported to reduce tumor growth by promoting T cell-mediated antitumor immunity in several preclinical animal studies. It is unknown, however, whether systemic administration of STING agonists can attenuate tumor progression in the bone marrow, which is generally regarded as an overwhelmingly immunosuppressive tumor microenvironment. To answer this question, luciferase-labeled LLC cells (LL/2-LUC2 cell line) were used to establish the metastatic bone cancer model via intrafemoral inoculation, thereby enabling measurement of local tumor burden by in vivo bioluminescent imaging. Mice were treated with vehicle or DMXAA (20 mg/kg, i.p. at d3 and d7), followed by in vivo bioluminescence imaging at d8, d11, and d15. […] To quantify this, we measured the ratio of the maximum thigh circumference (ipsilateral/contralateral), which accurately reflects local tumor volume. […]

Take `Cc1ccc2c(=O)c3cccc(CC(=O)O)c3oc2c1C` [DMXAA, 2-(5,6-dimethyl-9-oxo-9H-xanthen-4-yl)acetic acid]: in the experiment on DRG nociceptors, the “current-evoked action potential firing” value was “sharply reduced the cancer-induced increase in current-evoked action potential firing” and the rheobase of nociceptors entry is reported as “markedly increased the rheobase of nociceptors”. The “local tumor burden (total flux, bioluminescence)” value in experiment [1] (LL/2-Luc2, 20 mg/kg i.p. d3 and d7) is “lower local tumor burden at d11 and d15”. For the same molecule, in experiment [1] (d17), the “local tumor burden, Batf3^+/+ vs Batf3^−/−” value is given as “only tumor-bearing Batf3^+/+ mice but not Batf3^−/− mice exhibited a decrease in local tumor burden” and the “ratio of maximum thigh circumference, WT vs Rag1^−/−” value is “effectively reduced the ratio of maximum thigh circumference only in WT mice but not in Rag1^−/− mice”. In experiment [1] (day 17, LLC and E0771 models), the “ratio of maximum thigh circumference (ipsilateral/contralateral)” value is reported as “could reduce the ratio of maximum thigh circumference”.
